Test results taken from patent US20050180971A1, “Cancer therapy” (priority 2002, published 2005).
“And” between values parts separate entries of the source, which are not always exact repeats. Equal values may be shown once.

Test system: AE 17 cells
Assay: Murine mesothelioma model: subcutaneous AE 17 tumor challenge, tumor area by callipers
Format: in vivo, C57/B16 mice
From the text: Malignant mesothelioma in humans is an asbestos induced, incurable tumor that has a particularly poor prognosis. Average time from diagnosis to death being only eight months (Musk and Woodward, 1982). A murine model was developed by researchers in the Department of Medicine at the University of Western Australia to further the development of suitable interventions (Davies et al., 1992).
Day 0 was defined as the day of tumor cell inoculation with 1×10^6 AE 17 cells subcutaneously. The AE 17 tumor cell line was derived from C57/B16 mice and inoculated back into the same strain. This point will be referred to as a tumor challenge henceforth. Three groups of 5 mice were all challenged in this way. Subsequently the first of the groups was given a single ip dose of vinblastine (Vb) at 6 mg/kg body weight exactly 14 days post tumor challenge (Vb 19/11/01 group). The second group of 5 mice were similarly treated the next day; 15 days post tumor challenge (Vb 20/11/01). The third group received no Vb treatment (No treatment/control group).
Tumor measurements were taken from Day 14 onwards with callipers (2 diameters at right angles to each other in mm's). These two diameters are then multiplied together to give a mm^2 value that is known from past experience to correlate well with both tumor volume and tumor mass.

[1] = single ip Vb 6 mg/kg on day 14 post tumor challenge, measured day 14 (19-Nov)
[2] = single ip Vb 6 mg/kg on day 14 post tumor challenge, measured day 15 (20-Nov)
[3] = single ip Vb 6 mg/kg on day 14 post tumor challenge, measured day 18 (23-Nov)
[4] = single ip Vb 6 mg/kg on day 14 post tumor challenge, measured day 21 (26-Nov)
[5] = single ip Vb 6 mg/kg on day 14 post tumor challenge, measured day 24 (29-Nov)
[6] = single ip Vb 6 mg/kg on day 14 post tumor challenge, measured day 25 (30-Nov)
[7] = single ip Vb 6 mg/kg on day 14 post tumor challenge, measured day 28 (3-Dec)
[8] = single ip Vb 6 mg/kg on day 14 post tumor challenge, measured day 30 (5-Dec)
[9] = single ip Vb 6 mg/kg on day 15 post tumor challenge, measured day 14 (19-Nov), before treatment
[10] = single ip Vb 6 mg/kg on day 15 post tumor challenge, measured day 15 (20-Nov)
[11] = single ip Vb 6 mg/kg on day 15 post tumor challenge, measured day 18 (23-Nov)
[12] = single ip Vb 6 mg/kg on day 15 post tumor challenge, measured day 21 (26-Nov)
[13] = single ip Vb 6 mg/kg on day 15 post tumor challenge, measured day 24 (29-Nov)
[14] = single ip Vb 6 mg/kg on day 15 post tumor challenge, measured day 25 (30-Nov)
[15] = single ip Vb 6 mg/kg on day 15 post tumor challenge, measured day 28 (3-Dec)
[16] = single ip Vb 6 mg/kg on day 15 post tumor challenge, measured day 30 (5-Dec)

## CC[C@]1(O)C[C@@H]2CN(CCc3c([nH]c4ccccc34)[C@@](C(=O)OC)(c3cc4c(cc3OC)N(C)[C@H]3[C@@](O)(C(=O)OC)[C@H](OC(C)=O)[C@]5(CC)C=CCN6CC[C@]43[C@@H]65)C2)C1 [Vb, vinblastine]
Vb treatment day 15 post challenge
  mice with significant tumor development: 4/5
Single Vb treatment day 14 post challenge
  protection from tumor development: heavily protected from tumor development
Single Vb treatment day 14 post challenge, 5 mice
  effectiveness: 80%
Single ip Vb 6 mg/kg on day 14 post tumor challenge, measured (7-Dec)
  Tumor area (2 diameters multiplied), individual animal: 0 mm^2 (4×) and 70 mm^2
[1]
  Tumor area (2 diameters multiplied), individual animal: 4 mm^2 (4×) and 0.5 mm^2
  Tumor area, group mean: 3.3 mm^2
[2]
  Tumor area (2 diameters multiplied), individual animal: 0.5 mm^2 (3×) and 0 mm^2 (2×)
  Tumor area, group mean: 0.3 mm^2
[3]
  Tumor area (2 diameters multiplied), individual animal: 0 mm^2 (2×) and 2 mm^2 and 1 mm^2 and 0.5 mm^2
  Tumor area, group mean: 0.7 mm^2
[4]
  Tumor area (2 diameters multiplied), individual animal: 0.5 mm^2 (2×) and 1 mm^2 and 0 mm^2 (2×)
  Tumor area, group mean: 0.4 mm^2
[5]
  Tumor area (2 diameters multiplied), individual animal: 0 mm^2 (3×) and 6 mm^2 and 4 mm^2
  Tumor area, group mean: 2 mm^2
[6]
  Tumor area (2 diameters multiplied), individual animal: 0 mm^2 (3×) and 1 mm^2 and 0.5 mm^2
  Tumor area, group mean: 0.3 mm^2
[7]
  Tumor area (2 diameters multiplied), individual animal: 0 mm^2 (3×) and 0.5 mm^2 and 40 mm^2
  Tumor area, group mean: 8.1 mm^2
[8]
  Tumor area (2 diameters multiplied), individual animal: 0 mm^2 (4×) and 70 mm^2
  Tumor area, group mean: 14 mm^2
Single ip Vb 6 mg/kg on day 14 post tumor challenge, measured day 32 (7-Dec)
  Tumor area, group mean: 14 mm^2
Single ip Vb 6 mg/kg on day 15 post tumor challenge, measured (7-Dec)
  Tumor area (2 diameters multiplied), individual animal: 81 mm^2 and 0.5 mm^2 and 90 mm^2 (2×)
[9]
  Tumor area (2 diameters multiplied), individual animal: 0.5 mm^2 (3×) and 4 mm^2 and 9 mm^2
  Tumor area, group mean: 2.9 mm^2
[10]
  Tumor area (2 diameters multiplied), individual animal: 1 mm^2 and 0.5 mm^2 (3×) and 0 mm^2
  Tumor area, group mean: 0.5 mm^2
[11]
  Tumor area (2 diameters multiplied), individual animal: 4 mm^2 and 0.5 mm^2 (2×) and 0 mm^2 (2×)
  Tumor area, group mean: 1 mm^2
[12]
  Tumor area (2 diameters multiplied), individual animal: 9 mm^2 and 0.5 mm^2 (3×) and 8 mm^2
  Tumor area, group mean: 3.7 mm^2
[13]
  Tumor area (2 diameters multiplied), individual animal: 16 mm^2 and 0.5 mm^2 and 25 mm^2 and 12 mm^2
  Tumor area, group mean: 13.4 mm^2
[14]
  Tumor area (2 diameters multiplied), individual animal: 20 mm^2 and 0.5 mm^2 and 30 mm^2 and 25 mm^2
  Tumor area, group mean: 18.9 mm^2
[15]
  Tumor area (2 diameters multiplied), individual animal: 42 mm^2 and 0.5 mm^2 and 56 mm^2 and 90 mm^2
  Tumor area, group mean: 47.1 mm^2
[16]
  Tumor area (2 diameters multiplied), individual animal: 56 mm^2 and 0.5 mm^2 and 90 mm^2 (2×)
  Tumor area, group mean: 59.1 mm^2
Single ip Vb 6 mg/kg on day 15 post tumor challenge, measured day 32 (7-Dec)
  Tumor area, group mean: 65.4 mm^2
